Results: PMC11589570, “Critical assessment of LC3/GABARAP ligands used for degrader development and ligandability of LC3/GABARAP binding pockets” (Nature Communications, 2024)
Read-outs that look alike come from different tables or passages of the source.

Target: LC3B (Homo sapiens, UniProt Q9GZQ8)
Details: for CSP: LC3B:ligand molar ratio 1:2; for 3D Mapping code: molar ratio 1:2

O=C1Nc2ccc(I)cc2C1=Cc1cc(Br)c(O)c(Br)c1 [compound 4]
Kd: ≥ 200 µM
CSP induced (I34 HN resonance, molar ratio 10O5:LC3B 1): 0.019
CSP induced (I34 HN resonance, molar ratio 10O5:LC3B 2): 0.03102
CSP induced (I34 HN resonance, molar ratio 10O5:LC3B 8): 0.06113
CSP induced (K51 HN resonance, molar ratio 10O5:LC3B 1): 0.02725
CSP induced (K51 HN resonance, molar ratio 10O5:LC3B 2): 0.0413
CSP induced (K51 HN resonance, molar ratio 10O5:LC3B 8): 0.0854
CSP induced (L82 HN resonance, molar ratio 10O5:LC3B 1): 0.01304
CSP induced (L82 HN resonance, molar ratio 10O5:LC3B 2): 0.03131
CSP induced (L82 HN resonance, molar ratio 10O5:LC3B 8): 0.0642
CSP (LC3B residue A75): 0.00342 ppm
CSP (LC3B residue A78): 0.00654 ppm
CSP (LC3B residue A114): 0.006 ppm
CSP (LC3B residue D19): 0.011 ppm
CSP (LC3B residue D48): 0.026 ppm
3D Mapping code (LC3B residue D48): Light green (intermediate (SD < CSP <2xSD))
CSP (LC3B residue D56): 0.017 ppm
3D Mapping code (LC3B residue D56): Light green (intermediate (SD < CSP <2xSD))
CSP (LC3B residue D104): 0.00224 ppm
CSP (LC3B residue D106): 0.00462 ppm
CSP (LC3B residue E14): 0.00184 ppm
CSP (LC3B residue E18): 0.00544 ppm
CSP (LC3B residue E25): 0.018 ppm
3D Mapping code (LC3B residue E25): Light green (intermediate (SD < CSP <2xSD))
CSP (LC3B residue E36): 0.023 ppm
3D Mapping code (LC3B residue E36): Light green (intermediate (SD < CSP <2xSD))
CSP (LC3B residue E41): 0.002 ppm
CSP (LC3B residue E62): 0.016 ppm
3D Mapping code (LC3B residue E62): Light green (intermediate (SD < CSP <2xSD))
CSP (LC3B residue E97): 0.013 ppm
CSP (LC3B residue E100): 0.015 ppm
CSP (LC3B residue E102): 0.00152 ppm
CSP (LC3B residue E105): 0.00355 ppm
CSP (LC3B residue E117): 0.010 ppm
CSP (LC3B residue F07): 0.011 ppm
CSP (LC3B residue F13): 0.00221 ppm
CSP (LC3B residue F52): 0.070 ppm
3D Mapping code (LC3B residue F52): Orange (strong (2xSD <CSP))
CSP (LC3B residue F108): 0.00424 ppm
CSP (LC3B residue F119): 0.003 ppm
CSP (LC3B residue G40, estimated): 0.006 ppm
3D Mapping code (LC3B residue G85): Light green (intermediate (SD < CSP <2xSD))
CSP (LC3B residue G107): 0.005 ppm
CSP (LC3B residue H27): 0.018 ppm
3D Mapping code (LC3B residue H27): Light green (intermediate (SD < CSP <2xSD))
CSP (LC3B residue H57): 0.022 ppm
3D Mapping code (LC3B residue H57): Light green (intermediate (SD < CSP <2xSD))
3D Mapping code (LC3B residue H86): Light green (intermediate (SD < CSP <2xSD))
CSP (LC3B residue I23): 0.018 ppm
3D Mapping code (LC3B residue I23): Light green (intermediate (SD < CSP <2xSD))
CSP (LC3B residue I31): 0.020 ppm
3D Mapping code (LC3B residue I31): Light green (intermediate (SD < CSP <2xSD))
CSP (LC3B residue I34): 0.026 ppm
3D Mapping code (LC3B residue I34): Light green (intermediate (SD < CSP <2xSD))
CSP (LC3B residue I35): 0.011 ppm
CSP (LC3B residue I64): 0.035 ppm
3D Mapping code (LC3B residue I64): Orange (strong (2xSD <CSP))
CSP (LC3B residue I66): 0.00535 ppm
CSP (LC3B residue I67): 0.022 ppm
3D Mapping code (LC3B residue I67): Light green (intermediate (SD < CSP <2xSD))
3D Mapping code (LC3B residue I95): Light green (intermediate (SD < CSP <2xSD))
CSP (LC3B residue K08): 0.006 ppm
CSP (LC3B residue K30): 0.022 ppm
3D Mapping code (LC3B residue K30): Light green (intermediate (SD < CSP <2xSD))
CSP (LC3B residue K39): 0.008 ppm
CSP (LC3B residue K42): 0.00565 ppm
CSP (LC3B residue K49): 0.017 ppm
3D Mapping code (LC3B residue K49): Light green (intermediate (SD < CSP <2xSD))
CSP (LC3B residue K51): 0.037 ppm
3D Mapping code (LC3B residue K51): Orange (strong (2xSD <CSP))
CSP (LC3B residue K65): 0.004 ppm
CSP (LC3B residue K103): 0.011 ppm
CSP (LC3B residue L22): 0.009 ppm
CSP (LC3B residue L44): 0.00371 ppm
CSP (LC3B residue L47): 0.022 ppm
3D Mapping code (LC3B residue L47): Light green (intermediate (SD < CSP <2xSD))
CSP (LC3B residue L53): 0.052 ppm
3D Mapping code (LC3B residue L53): Orange (strong (2xSD <CSP))
CSP (LC3B residue L63): 0.011 ppm
CSP (LC3B residue L71): 0.011 ppm
CSP (LC3B residue L73): 0.011 ppm
3D Mapping code (LC3B residue L81): Light green (intermediate (SD < CSP <2xSD))
3D Mapping code (LC3B residue L82): Light green (intermediate (SD < CSP <2xSD))
CSP (LC3B residue L109): 0.00462 ppm
CSP (LC3B residue M01, estimated): 0.002 ppm
CSP (LC3B residue M60): 0.024 ppm
3D Mapping code (LC3B residue M60): Light green (intermediate (SD < CSP <2xSD))
CSP (LC3B residue M111): 0.018 ppm
3D Mapping code (LC3B residue M111): Light green (intermediate (SD < CSP <2xSD))
CSP (LC3B residue N59): 0.072 ppm
3D Mapping code (LC3B residue N59): Orange (strong (2xSD <CSP))
CSP (LC3B residue N74): 0.002 ppm
CSP (LC3B residue N76): 0.00173 ppm
3D Mapping code (LC3B residue N84): Light green (intermediate (SD < CSP <2xSD))
CSP (LC3B residue P02, estimated): 0.002 ppm
CSP (LC3B residue P28, estimated): 0.016 ppm
3D Mapping code (LC3B residue P28, CSP estimated): Light green (intermediate (SD < CSP <2xSD))
CSP (LC3B residue P32, estimated): 0.024 ppm
3D Mapping code (LC3B residue P32, CSP estimated): Light green (intermediate (SD < CSP <2xSD))
CSP (LC3B residue P45, estimated): 0.005 ppm
CSP (LC3B residue P55, estimated): 0.025 ppm
3D Mapping code (LC3B residue P55, CSP estimated): Light green (intermediate (SD < CSP <2xSD))
CSP (LC3B residue Q09): 0.000424 ppm
CSP (LC3B residue Q15): 0.00358 ppm
CSP (LC3B residue Q26): 0.017 ppm
3D Mapping code (LC3B residue Q26): Light green (intermediate (SD < CSP <2xSD))
CSP (LC3B residue Q43): 0.00371 ppm
CSP (LC3B residue Q72): 0.009 ppm
CSP (LC3B residue Q77): 0.005 ppm
CSP (LC3B residue Q116): 0.00122 ppm
CSP (LC3B residue R10): 0.005 ppm
CSP (LC3B residue R11): 0.003 ppm
CSP (LC3B residue R16): 0.013 ppm
CSP (LC3B residue R21): 0.026 ppm
3D Mapping code (LC3B residue R21): Light green (intermediate (SD < CSP <2xSD))
CSP (LC3B residue R24): 0.014 ppm
CSP (LC3B residue R37): 0.016 ppm
CSP (LC3B residue R68): 0.032 ppm
3D Mapping code (LC3B residue R68): Orange (strong (2xSD <CSP))
CSP (LC3B residue R69): 0.020 ppm
3D Mapping code (LC3B residue R69): Light green (intermediate (SD < CSP <2xSD))
CSP (LC3B residue R70): 0.032 ppm
3D Mapping code (LC3B residue R70): Orange (strong (2xSD <CSP))
CSP (LC3B residue S03, estimated): 0.002 ppm
CSP (LC3B residue S61): 0.017 ppm
3D Mapping code (LC3B residue S61): Light green (intermediate (SD < CSP <2xSD))
3D Mapping code (LC3B residue S87): Orange (strong (2xSD <CSP))
3D Mapping code (LC3B residue S90): Orange (strong (2xSD <CSP))
3D Mapping code (LC3B residue S92): Orange (strong (2xSD <CSP))
CSP (LC3B residue S96): 0.039 ppm
3D Mapping code (LC3B residue S96): Orange (strong (2xSD <CSP))
CSP (LC3B residue S101): 0.011 ppm
CSP (LC3B residue S115): 0.008 ppm
CSP (LC3B residue T06): 0.00323 ppm
CSP (LC3B residue T12): 0.00666 ppm
CSP (LC3B residue T29, estimated): 0.016 ppm
3D Mapping code (LC3B residue T29, CSP estimated): Light green (intermediate (SD < CSP <2xSD))
CSP (LC3B residue T50): 0.022 ppm
3D Mapping code (LC3B residue T50): Light green (intermediate (SD < CSP <2xSD))
3D Mapping code (LC3B residue T93): Orange (strong (2xSD <CSP))
CSP (LC3B residue T118): 0.005 ppm
CSP (LC3B residue V17): 0.009 ppm
CSP (LC3B residue V20): 0.010 ppm
CSP (LC3B residue V33): 0.029 ppm
3D Mapping code (LC3B residue V33): Light green (intermediate (SD < CSP <2xSD))
CSP (LC3B residue V46): 0.008 ppm
CSP (LC3B residue V54): 0.049 ppm
3D Mapping code (LC3B residue V54): Orange (strong (2xSD <CSP))
CSP (LC3B residue V58): 0.034 ppm
3D Mapping code (LC3B residue V58): Orange (strong (2xSD <CSP))
3D Mapping code (LC3B residue V83): Orange (strong (2xSD <CSP))
3D Mapping code (LC3B residue V89): Light green (intermediate (SD < CSP <2xSD))
3D Mapping code (LC3B residue V91, CSP estimated): Orange (strong (2xSD <CSP))
CSP (LC3B residue V98): 0.013 ppm
CSP (LC3B residue V112): 0.027 ppm
3D Mapping code (LC3B residue V112): Light green (intermediate (SD < CSP <2xSD))
CSP (LC3B residue Y38): 0.00356 ppm
CSP (LC3B residue Y99): 0.00251 ppm
CSP (LC3B residue Y110): 0.037 ppm
3D Mapping code (LC3B residue Y110): Orange (strong (2xSD <CSP))
CSP (LC3B residue Y113): 0.013 ppm
CSP induced (N59 HN resonance, molar ratio 10O5:LC3B 1): 0.03127
CSP induced (N59 HN resonance, molar ratio 10O5:LC3B 2): 0.08027
CSP induced (N59 HN resonance, molar ratio 10O5:LC3B 8): 0.1884
CSP induced (S90 HN resonance, molar ratio 10O5:LC3B 1): 0.01709
CSP induced (S90 HN resonance, molar ratio 10O5:LC3B 2): 0.04125
CSP induced (S90 HN resonance, molar ratio 10O5:LC3B 8): 0.08089
CSP induced (Y110 HN resonance, molar ratio 10O5:LC3B 1): 0.0222
CSP induced (Y110 HN resonance, molar ratio 10O5:LC3B 2): 0.03845
CSP induced (Y110 HN resonance, molar ratio 10O5:LC3B 8): 0.0862
